{"source": "patent US20070185099A1", "about": "“Triazolopyrimidine compounds and their use for controlling pathogenic fungi” (priority 2004, published 2007)", "system": "Puccinia recondita", "experiment": "Curative activity against brown rust of wheat caused by Puccinia recondita", "type": "in vivo", "details": "250 ppm active compound, wheat cultivar Kanzler, 7 days after treatment, untreated plants 80% infected", "protocol": "The active compounds were prepared as a stock solution by mixing 25 mg of active compound with a mixture of acetone and/or DMSO and the emulsifier Uniperol® EL (wetting agent having an emulsifying and dispersing action based on ethoxylated alkylphenols) in a volume ratio of solvent/emulsifier of 99:1 to give a total volume of 10 ml, and the mixture was then diluted to 100 ml with water. This stock solution was diluted with the solvent/emulsifier/water mixture described to give the concentration of active compounds stated below.\nLeaves of potted wheat seedlings of the cultivar “Kanzler” were inoculated with a spore suspension of brown rust (Puccinia recondita). The pots were then placed into a chamber with high atmospheric humidity (90 to 95%) and at 20-22° C. for 24 hours. During this time, the spores germinated and the germ tubes penetrated into the leaf tissue. The next day, the infected plants were sprayed to runoff point with an aqueous suspension having the concentration of active compounds stated below. The suspension or emulsion was prepared as described above. After the spray coating had dried on, the test plants were cultivated in a greenhouse at temperatures between 20 and 22° C. and at 65 to 70% relative atmospheric humidity for 7 days. The extent of the rust fungus development on the leaves was then determined."}
{"smiles": "COC(=O)C(Nc1c(-c2c(F)cc(F)cc2F)c(Cl)nc2ncnn12)C(C)(C)C", "note": "(racemic) [Example 61]", "values": [{"measurement": "infection of treated plants (rust fungus development on leaves)", "value": "no infection"}]}
{"smiles": "COC(=O)C(C(C)C)N(C)c1c(-c2c(F)cc(F)cc2F)c(Cl)nc2ncnn12", "note": "(centres unmarked) [Example 60]", "values": [{"measurement": "infection of treated plants (rust fungus development on leaves)", "value": "no infection"}]}
